IC50 data for 32 compounds are collected here from US20050197350A1, “Novel quinoline, tetrahydroquinazoline, and pyrimidine derivatives and methods of treatment related to the use thereof” (TAISHO PHARMACEUTICAL CO., LTD., priority 2003, published 2005).

Counter-ions that a name gives are not always drawn.

One assay has as its target MCH receptor (Homo sapiens, UniProt Q99705). The assay is described as follows: High throughput functional screening FLIPR/FDSS6000 (intracellular Ca2+ evoked by MCH). Format: cell-based. Conditions: FLIPR/FDSS, antagonist activity vs 50 nM MCH; class by percent of control at 10^−7 M or IC50; read-out: class. Put shortly: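 For antagonist testing, compound-treated cells (30 min, 37 °C) were stimulated with 50 nM MCH and intracellular Ca2+ followed by Fluo4 fluorescence on FLIPR/FDSS6000. Receptor was a constitutively active, non-endogenous MCH receptor; dye loading 4 μM Fluo4-AM, 1 h, 37 °C.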
With `COc1ccccc1S(=O)(=O)c1ncccc1C(=O)N[C@H]1CC[C@@H](Nc2nc(C)cc(N(C)C)n2)CC1` [Example 3378, N-(cis-4-{[4-(dimethylamino)-6-methylpyrimidin-2-yl]amino}cyclohexyl)-2-[(2-methoxyphenyl)sulfonyl]-nicotinamide], the IC50 is over 200 nM.

On to `CCN(C(=O)N[C@H]1CC[C@@H](Nc2ncc(C)c(N(C)C)n2)CC1)c1ccccc1OC(F)(F)F` [Example 3349, N′-(cis-4-{[4-(dimethylamino)-5-methylpyrimidin-2-yl]amino}cyclohexyl)-N-ethyl-N-[2-(trifluoromethoxy)-phenyl]urea], for which the IC50 lay within 50 to 200 nM.

For the compound `Cc1cnc(N[C@H]2CC[C@@H](NC(=O)Nc3ccc(Cl)c(Cl)c3)CC2)nc1N(C)C` [Example 3337, N-(3,4-dichlorophenyl)-N′-(cis-4-{[4-(dimethylamino)-5-methylpyrimidin-2-yl]amino}cyclohexyl)urea], the IC50 is 50 to 200 nM.

`Cc1cnc(N[C@H]2CC[C@@H](NC(=O)[C@@H]3C[C@H]3c3ccc(Cl)cc3)CC2)nc1N(C)C` (relative stereo) [Example 3316, trans-2-(4-chlorophenyl)-N-(cis-4-{[4-(dimethylamino)-5-methylpyrimidin-2-yl]amino}cyclohexyl)-cyclopropanecarboxamide]: the IC50 is under 50 nM.

`Cc1cnc(N[C@H]2CC[C@@H](NCC(=O)c3ccc(Br)cc3)CC2)nc1N(C)C` [Example 3262, 1-(4-bromophenyl)-2-[(cis-4-{[4-(dimethylamino)-5-methylpyrimidin-2-yl]amino}cyclohexyl)amino]ethanone]: the IC50 is over 200 nM.

Take `Cc1cc(N(C)C)nc(N[C@H]2CC[C@@H](NC(=O)c3cccnc3S(=O)(=O)c3ccc(Br)cc3)CC2)n1` [Example 3374, 2-[(4-bromophenyl)sulfonyl]-N-(cis-4-{[4-(dimethylamino)-6-methylpyrimidin-2-yl]amino}cyclohexyl)nicotinamide]: the IC50 was over 200 nM.

`Cc1cc(N[C@H]2CC[C@@H](C(=O)N[C@@H](C)c3ccc(Br)cc3)CC2)nc2ccccc12` [Example 3304, cis-N-[(1S)-1-(4-bromophenyl)ethyl]-4-[(4-methylquinolin-2-yl)amino]cyclohexanecarboxamide]: the IC50 is over 200 nM.

On to `CCN(C(=O)N[C@H]1CC[C@@H](Nc2ncc(C)c(N(C)C)n2)CC1)c1ccc(Cl)cc1` [Example 3353, N-(4-chlorophenyl)-N′-(cis-4-{[4-(dimethylamino)-5-methylpyrimidin-2-yl]amino}cyclohexyl)-N-ethylurea], for which the IC50 is under 50 nM.

For the compound `Cc1cnc(N[C@H]2CC[C@@H](C(=O)N[C@H](C)c3ccccc3F)CC2)nc1N(C)C` [Example 3294, cis-4-{[4-(dimethylamino)-5-methylpyrimidin-2-yl]aminol}-N-[(1R)-1-(2-fluorophenyl)ethyl]cyclohexanecarboxamide], the IC50 was over 200 nM.

For the compound `CCN(C(=O)N[C@H]1CC[C@@H](Nc2ncc(C)c(N(C)C)n2)CC1)c1ccccc1` [Example 3350, N′-(cis-4-{[4-(dimethylamino)-5-methylpyrimidin-2-yl]amino}cyclohexyl)-N-ethyl-N-phenylurea], the IC50 was under 50 nM.

Turning to `Cc1cc(N(C)C)nc(N[C@H]2CC[C@@H](NC(=O)N(C)C3(c4ccc(Cl)cc4)CC3)CC2)n1` [Example 3272, N-[1-(4-chlorophenyl)cyclopropyl]-N′-(cis-4-{[4-(dimethylamino)-6-methylpyrimidin-2-yl]amino}cyclohexyl)-N-methylurea], the IC50 was over 200 nM.

The assay is the same for the next values; noted with them: FLIPR/FDSS, antagonist activity vs 50 nM MCH; class by percent of control at 10^−7 M or IC50; table after the classification; read-out: class.
On to `CN(C)c1ccnc(N[C@H]2CC[C@@H](NC(=O)c3ccc(C(F)(F)F)nc3)CC2)n1` [Example 3212, N-[cis-4-(4-Dimethylamino-pyrimidin-2-ylamino)-cyclohexyl]-6-trifluoromethyl-nicotinamide hydrochloride], for which the IC50 was over 200 nM.

Regarding `CN(C)c1nc(N[C@H]2CC[C@@H](CNC(=O)c3cccnc3Oc3ccccc3)CC2)nc2c1CCCC2` [Example 3113, N-[cis-4-(4-Dimethylamino-5,6,7,8-tetrahydro-quinazolin-2-ylamino)-cyclohexylmethyl]-2-phenoxy-nicotinamide hydrochloride], the IC50 was over 200 nM.

`Cc1cc(N[C@H]2CC[C@@H](NC(=O)C3c4ccccc4Oc4ccccc43)CC2)nc2ccccc12` [Example 3082, 9H-Xanthene-9-carboxylic acid-[cis-4-(4-methyl-quinolin-2-ylamino)-cyclohexyl]-amide hydrochloride]: the IC50 was under 50 nM.

Regarding `Cc1cc(C(=O)N[C@H]2CC[C@@H](Nc3nc4c(c(N(C)C)n3)CCCC4)CC2)ccc1F` [Example 3109, N-[cis-4-(4-Dimethylamino-5,6,7,8-tetrahydro-quinazolin-2-ylamino)-cyclohexyl]-4-fluoro-3-methyl-benzamide hydrochloride], the IC50 was under 50 nM.

Consider `O=C(N[C@H]1CC[C@@H](Nc2ccc3ccccc3n2)CC1)c1cccnc1Oc1ccc(F)c(F)c1` [Example 3055, 2-(3,4-Difluoro-phenoxy)-N-[cis-4-(quinolin-2-ylamino)-cyclohexyl]-nicotinamide hydrochloride], for which the IC50 is under 50 nM.

Regarding `Cc1cc(N[C@H]2CC[C@@H](NC(=O)c3cccnc3)CC2)nc2ccccc12` [Example 3182, N-[cis-4-(4-Methyl-quinolin-2-ylamino)-cyclohexyl]-nicotinamide hydrochloride], the IC50 is over 200 nM.

In the case of `Cc1cc(N[C@H]2CC[C@@H](CNC(=O)c3ccc(F)c(F)c3)CC2)nc2ccccc12` [Example 3104, 3,4-Difluoro-N-[cis-4-(4-methyl-quinolin-2-ylamino)-cyclohexylmethyl]-benzamide hydrochloride], the IC50 was 50 to 200 nM.

For `Cc1cc(N(C)C)nc(N[C@H]2CC[C@@H](NC(=O)c3cc(F)c(F)c(F)c3)CC2)n1` [Example 3385, N-[cis-4-(4-Dimethylamino-6-methyl-pyrimidin-2-ylamino)-cyclohexyl]-3,4,5-trifluoro-benzamide hydrochloride], the IC50 is under 50 nM.

Take `COc1cc(OC)cc(C(=O)N[C@H]2CC[C@@H](Nc3nc4c(c(N(C)C)n3)CCCC4)CC2)c1` [Example 3110, N-[cis-4-(4-Dimethylamino-5,6,7,8-tetrahydro-quinazolin-2-ylamino)-cyclohexyl]-3,5-dimethoxy-benzamide hydrochloride]: the IC50 was under 50 nM.

`COc1cccc(OCC(=O)N[C@H]2CC[C@@H](Nc3ccc4ccccc4n3)CC2)c1` [Example 3062, 2-(3-Methoxy-phenoxy)-N-[cis-4-(quinolin-2-ylamino)-cyclohexyl]-acetamide hydrochloride]: the IC50 is under 50 nM.

As for `Cc1cc(N[C@H]2CC[C@@H](NC(=O)c3cccnc3Oc3ccc(F)c(Cl)c3)CC2)nc2ccccc12` [Example 3096, 2-(3-Chloro-4-fluoro-phenoxy)-N-[cis-4-(4-methyl-quinolin-2-ylamino)-cyclohexyl]-nicotinamide hydrochloride], the IC50 was under 50 nM.

Consider `O=C(N[C@H]1CC[C@@H](Nc2nccc(C(F)(F)F)n2)CC1)c1cccnc1Oc1ccccc1` [Example 3133, 2-Phenoxy-N-[cis-4-(4-trifluoromethyl-pyrimidin-2-yl)-amino-cyclohexyl]-nicotinamide hydrochloride], for which the IC50 is over 200 nM.

Turning to `CCN(CC(=O)N[C@H]1CC[C@@H](Nc2ccc3ccccc3n2)CC1)c1ccc(Cl)cc1` [Example 3154, C-[(4-Chloro-phenyl)-ethyl-amino]-N-[cis-4-(quinolin-2-ylamino)-cyclohexyl]-acetamide dihydrochloride], the IC50 was under 50 nM.

On to `Cc1cc(N[C@H]2CC[C@@H](NC(=O)c3cccc(Cl)c3)CC2)nc2ccccc12` [Example 3073, 3-Chloro-N-[cis-4-(4-methyl-quinolin-2-ylamino)-cyclohexyl]-benzamide hydrochloride], for which the IC50 was under 50 nM.

As for `CN(C)c1ccnc(N[C@H]2CC[C@@H](NC(=O)c3cccnc3)CC2)n1` [Example 3209, N-[cis-4-(4-Dimethylamino-pyrimidin-2-ylamino)-cyclohexyl]-nicotinamide dihydrochloride], the IC50 is over 200 nM.

For the compound `O=C(NC[C@H]1CC[C@@H](Nc2ccc3ccccc3n2)CC1)c1ccc(F)c(F)c1` [Example 3068, 3,4-Difluoro-N-[cis-4-(quinolin-2-ylamino)-cyclohexylmethyl]-benzamide hydrochloride], the IC50 lay in the range of 50 to 200 nM.

Turning to `CN(C)c1ccnc(N[C@H]2CC[C@@H](CNC(=O)C3c4ccccc4Oc4ccccc43)CC2)n1` [Example 3221, 9H-Xanthene-9-carboxylic acid [cis-4-(4-dimethylamino-pyrimidin-2-ylamino)-cyclohexylmethyl]-amide hydrochloride], the IC50 is under 50 nM.

On to `Cc1cc(N[C@H]2CC[C@@H](NC(=O)c3ccccc3F)CC2)nc2ccccc12` [Example 3171, 2-Fluoro-N-[cis-4-(4-methyl-quinolin-2-ylamino)-cyclohexyl]-benzamide hydrochloride], for which the IC50 lay in the range of 50 to 200 nM.

Take `CN(C)c1ccnc(N[C@H]2CC[C@@H](NC(=O)COc3ccc(Cl)c(Cl)c3)CC2)n1` [Example 3393, 2-(3,4-Dichloro-phenoxy)-N-[cis-4-(4-dimethylamino-pyrimidin-2-ylamino)-cyclohexyl]-acetamide hydrochloride]: the IC50 is under 50 nM.

In the case of `Cc1cccc(OCC(=O)N[C@H]2CC[C@@H](Nc3cc(C)c4ccccc4n3)CC2)c1` [Example 3084, N-[cis-4-(4-Methyl-quinolin-2-ylamino)-cyclohexyl]-2-m-tolyloxy-acetamide hydrochloride], the IC50 was under 50 nM.

Still in this assay, the particulars now being: FLIPR/FDSS, antagonist activity vs 50 nM MCH; representative examples; read-out: IC50.
`Cc1cccc(C(=O)N[C@H]2CC[C@@H](Nc3nc(C)cc(N(C)C)n3)CC2)c1` [Example 2526, N-(cis-4-{[4-(Dimethylamino)-6-methylpyrimidin-2-yl]amino}cyclohexyl)-3-methylbenzamide trifluoroacetate]: the IC50 came out at 7.6 nM.
